The structures appear in SMILES notation.

The first experiment concerns the target T1, Urotensin-2 receptor (Homo sapiens, UniProt Q9UKP6).
T1 sequence (Q9UKP6 whole entry): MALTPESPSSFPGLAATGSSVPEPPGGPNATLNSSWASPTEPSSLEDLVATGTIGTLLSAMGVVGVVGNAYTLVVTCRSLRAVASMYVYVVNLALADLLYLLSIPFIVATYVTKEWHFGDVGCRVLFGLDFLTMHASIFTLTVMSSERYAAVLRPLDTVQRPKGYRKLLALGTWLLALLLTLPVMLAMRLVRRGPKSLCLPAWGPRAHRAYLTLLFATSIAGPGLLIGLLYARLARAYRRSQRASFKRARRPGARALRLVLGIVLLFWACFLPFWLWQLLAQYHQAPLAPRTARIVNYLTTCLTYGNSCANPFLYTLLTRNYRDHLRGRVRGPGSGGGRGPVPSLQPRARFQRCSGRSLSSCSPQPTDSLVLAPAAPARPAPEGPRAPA
The experiment can be described thus: (§1) Inhibition of hU-II-mediated [Ca2+]i mobilization in HEK293 cells expressing human recombinant Urotensin 2 receptor in FLIPR assay. In kind it is cell-based.
With `CN(C)CCCOc1ccc(CN2CC[C@H](NC(=O)c3ccc(Cl)c(Cl)c3)C2)cc1`, the IC50 (commonly the point on the concentration scale where inhibition reaches its midpoint) is 158 nM.

The target in a further experiment is T1, Urotensin-2 receptor. The experiment is described as §1. In kind it is functional, cell-based.
Take `CC(C)C[C@H](NC(=O)c1cc2ccccc2s1)C(=O)NC1CCN(Cc2ccc(OCCCN(C)C)cc2)C1` (single isomer, unassigned; 2a): the IC50 was 631 nM.

The target of the next experiment is T2, Urotensin-2 receptor (Rattus norvegicus, UniProt P49684).
T2 sequence (P49684 whole entry): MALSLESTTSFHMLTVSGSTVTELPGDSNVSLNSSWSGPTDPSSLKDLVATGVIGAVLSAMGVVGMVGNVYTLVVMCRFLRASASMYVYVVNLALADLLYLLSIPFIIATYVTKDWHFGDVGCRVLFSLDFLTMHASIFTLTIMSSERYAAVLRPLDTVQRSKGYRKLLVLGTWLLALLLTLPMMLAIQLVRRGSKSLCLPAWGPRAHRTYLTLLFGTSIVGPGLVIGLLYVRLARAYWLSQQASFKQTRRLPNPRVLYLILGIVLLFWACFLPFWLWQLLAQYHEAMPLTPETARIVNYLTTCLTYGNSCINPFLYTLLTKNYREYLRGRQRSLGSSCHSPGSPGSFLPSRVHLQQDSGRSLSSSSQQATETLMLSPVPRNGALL
Kind of experiment: Binding affinity for rat urotensin-2 receptor.
As for `CN(C)CCCOc1ccc(CN2CC[C@H](NC(=O)c3ccc(Cl)c(Cl)c3)C2)cc1`, the inhibition constant Ki – broadly, a dissociation constant, usually derived from enzyme kinetics or from competition with a known ligand – was 3160 nM.

A further experiment has as its target T3, Urotensin-2 receptor (Macaca mulatta, UniProt Q8HYC3).
T3 sequence (Q8HYC3 whole entry): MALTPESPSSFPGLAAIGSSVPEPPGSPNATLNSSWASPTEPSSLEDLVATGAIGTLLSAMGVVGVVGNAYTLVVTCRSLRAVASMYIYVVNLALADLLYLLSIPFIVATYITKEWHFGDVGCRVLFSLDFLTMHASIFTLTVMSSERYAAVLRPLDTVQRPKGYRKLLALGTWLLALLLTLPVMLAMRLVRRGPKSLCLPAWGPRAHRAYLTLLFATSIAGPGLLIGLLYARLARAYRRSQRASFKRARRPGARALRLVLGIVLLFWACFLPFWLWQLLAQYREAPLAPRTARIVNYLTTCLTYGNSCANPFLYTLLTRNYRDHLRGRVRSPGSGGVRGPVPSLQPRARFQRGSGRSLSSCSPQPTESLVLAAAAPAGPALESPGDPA
The experiment can be described thus: Binding affinity for monkey urotensin-2 receptor.
Compound `CN(C)CCCOc1ccc(CN2CC[C@H](NC(=O)c3ccc(Cl)c(Cl)c3)C2)cc1` had a Ki of 251 nM.

In a further experiment the target is T1, Urotensin-2 receptor. Kind of experiment: Binding affinity using [125I]hU-II radioligand binding assay in HEK293 cell membranes expressing human Urotensin 2 receptor.
The compound `CN(C)CCCOc1ccc(CN2CC[C@H](NC(=O)c3ccc4c(c3)OCO4)C2)cc1` showed a Ki of 2510 nM.

Regarding `CC(C)[C@H](NC(=O)c1ccc(Cl)c(Cl)c1)C(=O)N[C@H]1CCN(Cc2ccc(OCCCN(C)C)cc2)C1`, the Ki was 794 nM.

For the compound `CN(C)CCCOc1ccc(CN2CC[C@H](NC(=O)c3ccncc3)C2)cc1`, the Ki was > 10000 nM.

On to `CN(C)CCCOc1ccc(CN2CC[C@H](NC(=O)c3cc(Cl)cc(Cl)c3)C2)cc1`, for which the affinity corresponds to a Ki of 2000 nM.

As for `CN(C)CCCOc1ccc(CN2CC[C@H](NC(=O)c3ccco3)C2)cc1`, the Ki was > 10000 nM.

`COc1ccc(C(=O)N[C@H]2CCN(Cc3ccc(OCCCN(C)C)cc3)C2)cc1OC`: the inhibition constant (Ki) was > 10000 nM.

On to `CN(C)CCCOc1ccc(CN2CC[C@H](NC(=O)c3ccc(-c4ccccc4)cc3)C2)cc1`, for which the Ki was > 10000 nM.

Compound `CC(C)C[C@H](NC(=O)Nc1ccccc1)C(=O)N[C@H]1CCN(Cc2ccc(OCCCN(C)C)cc2)C1` showed a Ki of 1000 nM.

With `CC(=O)N[C@H]1CCN(Cc2ccc(OCCCN(C)C)cc2)C1`, the Ki was > 10000 nM.

Turning to `CC(C)C[C@H](NC(=O)c1cc2ccccc2[nH]1)C(=O)N[C@H]1CCN(Cc2ccc(OCCCN(C)C)cc2)C1`, the Ki was 501 nM.

In turn, `CC(C)C[C@H](NC(=O)c1ccc(Br)cc1)C(=O)N[C@H]1CCN(Cc2ccc(OCCCN(C)C)cc2)C1` showed a Ki of 200 nM.

For `CN(C)CCCOc1ccc(CN2CC[C@H](NC(=O)CNC(=O)c3ccc(Cl)c(Cl)c3)C2)cc1`, the Ki is > 10000 nM.

In the case of `Cc1ccc(C(=O)N[C@H]2CCN(Cc3ccc(OCCCN(C)C)cc3)C2)cc1C`, the inhibitory constant (Ki) is > 10000 nM.

As for `CC(C)C[C@H](NC(=O)c1ccc(Cl)c(Cl)c1)C(=O)N[C@H]1CCN(Cc2ccc(OCCCN(C)C)cc2)C1`, the affinity, expressed as Ki, was 126 nM.

Regarding `CC(C)C[C@H](NC(=O)c1ccc2c(c1)OCO2)C(=O)N[C@H]1CCN(Cc2ccc(OCCCN(C)C)cc2)C1`, the Ki was 501 nM.

Consider `CN(C)CCCOc1ccc(CN2CC[C@H](NC(=O)c3cccs3)C2)cc1`, for which the Ki was > 10000 nM.

For the compound `CN(C)CCCOc1ccc(CN2CC[C@H](NC(=O)c3ccc(C(F)(F)F)cc3)C2)cc1`, the Ki is > 10000 nM.

As for `CN(C)CCCOc1ccc(CN2CC[C@H](NC(=O)c3ccc(C#N)cc3)C2)cc1`, the Ki is > 10000 nM.

The compound `CC(C)C[C@H](NC(=O)c1ccc2ccccc2n1)C(=O)N[C@H]1CCN(Cc2ccc(OCCCN(C)C)cc2)C1` gave an inhibitory constant (Ki) of 631 nM.

In the case of `CC(C)C[C@H](NC(=O)Cc1ccc2c(c1)OCO2)C(=O)N[C@H]1CCN(Cc2ccc(OCCCN(C)C)cc2)C1`, the Ki is 398 nM.

Compound `Cc1cc(C(=O)N[C@H]2CCN(Cc3ccc(OCCCN(C)C)cc3)C2)ccc1Cl` showed a Ki of 631 nM.

With `CN(C)CCCOc1ccc(CN2CC[C@H](NC(=O)c3ccc4ccccc4c3)C2)cc1`, the Ki was > 10000 nM.

Compound `CN(C)CCCOc1ccc(CN2CC[C@H](NC(=O)c3ccc(Br)cc3)C2)cc1` gave a Ki of 316 nM.

For `Cc1cc(C(=O)N[C@H]2CCN(Cc3ccc(OCCCN(C)C)cc3)C2)ccc1Br`, the Ki was 631 nM.

Consider `CC(C)C[C@H](NC(=O)c1ccccc1)C(=O)N[C@H]1CCN(Cc2ccc(OCCCN(C)C)cc2)C1`, for which the affinity corresponds to a Ki of 501 nM.

Take `CC(C)C[C@H](NC(=O)c1cccs1)C(=O)N[C@H]1CCN(Cc2ccc(OCCCN(C)C)cc2)C1`: the inhibition constant (Ki) was 398 nM.

Consider `CN(C)CCCOc1ccc(CN2CC[C@H](NC(=O)c3ccc(Cl)c(Cl)c3)C2)cc1`, for which the Ki was 200 nM.

For `CN(C)CCCOc1ccc(CN2CC[C@H](NC(=O)[C@H](CCC(=O)O)NC(=O)c3ccc(Cl)c(Cl)c3)C2)cc1`, the Ki was > 10000 nM.

As for `CN(C)CCCOc1ccc(CN2CC[C@H](NC(=O)[C@H](Cc3ccccc3)NC(=O)c3ccc(Cl)c(Cl)c3)C2)cc1`, the Ki was 398 nM.

Take `CN(C)CCCOc1ccc(CN2CC[C@H](NC(=O)[C@H](CCCCN)NC(=O)c3ccc(Cl)c(Cl)c3)C2)cc1`: the Ki is > 10000 nM.

As for `CC(C)C[C@H](NC(=O)Oc1ccccc1)C(=O)N[C@H]1CCN(Cc2ccc(OCCCN(C)C)cc2)C1`, the Ki is 251 nM.

As to `CC(C)C[C@H](NC(=O)c1ccco1)C(=O)N[C@H]1CCN(Cc2ccc(OCCCN(C)C)cc2)C1`, the Ki is 631 nM.

The compound `CN(C)CCCOc1ccc(CN2CC[C@H](NC(=O)c3ccccc3)C2)cc1` had a Ki of 2510 nM.

As to `CC(=O)N[C@@H](CC(C)C)C(=O)N[C@H]1CCN(Cc2ccc(OCCCN(C)C)cc2)C1`, affinity was put at a Ki of 2510 nM.

In the case of `CN(C)CCCOc1ccc(CN2CC[C@H](NC(=O)c3cc4ccccc4o3)C2)cc1`, the inhibition constant (Ki) was 2510 nM.

In turn, `CC(C)C[C@H](NC(=O)c1ccncc1)C(=O)N[C@H]1CCN(Cc2ccc(OCCCN(C)C)cc2)C1` gave an inhibition constant (Ki) of 2000 nM.

As to `CC(C)C[C@@H](NC(=O)c1cc2ccccc2o1)C(=O)NC1CCN(Cc2ccc(OCCCN(C)C)cc2)C1` (single isomer, unassigned), affinity was put at a Ki of 3160 nM.

As for `CC(C)C[C@H](NC(=O)c1cc2ccccc2s1)C(=O)NC1CCN(Cc2ccc(OCCCN(C)C)cc2)C1` (single isomer, unassigned; 2a), the affinity, expressed as Ki, was 126 nM.

Take `CC(C)C[C@H](NC(=O)c1cc2ccccc2s1)C(=O)NC1CCN(Cc2ccc(OCCCN(C)C)cc2)C1` (single isomer, unassigned; 2b): the inhibitory constant (Ki) is > 10000 nM.

In the case of `CC(C)C[C@H](NC(=O)c1cc2ccccc2o1)C(=O)NC1CCN(Cc2ccc(OCCCN(C)C)cc2)C1` (single isomer, unassigned; 2c), the Ki is 158 nM.

Consider `CC(C)C[C@H](NC(=O)c1cc2ccccc2o1)C(=O)NC1CCN(Cc2ccc(OCCCN(C)C)cc2)C1` (single isomer, unassigned; 2d), for which the inhibitory constant (Ki) is > 10000 nM.

For the origin of these results see ChEMBL document CHEMBL1140236, “Aminoalkoxybenzyl pyrrolidines as novel human urotensin-II receptor antagonists” (Bioorg Med Chem Lett, 2005).
